Legend:
HIV-1 integrase = tested on: HIV-1 integrase; design: method as in earlier work; conditions: cited from earlier work
[1] = target: T1, HIV-1 RT-associated RNase H function (Human immunodeficiency virus type 1 group M subtype B, UniProt P04585); assay: HIV-1 DNA polymerase-independent RNase H activity determination (wt RT); format: biochemical; conditions: for IC50: concentration required to reduce the enzyme activity by 50%, read-out: RnaseH IC50; for remaining activity at 100 µM: in the presence of 100 µM of the compound, read-out: Percentage of residual enzyme activity (RNase H)
T1 construct: The 1:1 ration between the p66/p51 subunits was also verified; His6; made in house; host or cells: E. coli strain M15
Method: (§1) HIV-1 RT group M subtype B. Heterodimeric RT was expressed essentially as previously described. Briefly, E. coli strain M15 containing the p6HRT-prot vector was grown to an optical density at 600 nm of 0.7 and induced with 1.7 mM isopropyl β-D-1-thiogalactopyranoside (IPTG) for 4 h. Protein purification was carried out with a BioLogic LP system (Biorad), using a combination of immobilised metal affinity and ion exchange chromatography. Cell pellets were resuspended in lysis buffer (50 mM sodium phosphate buffer pH 7.8, containing 0.5 mg/mL lysozyme), incubated on ice for 20 min, and after adding NaCl to a final concentration of 0.3 M, were sonicated and centrifuged at […] for 1 h. The supernatant was loaded onto a Ni^2+-NTA-Sepharose column pre-equilibrated with loading buffer (50 mM sodium phosphate buffer pH 7.8, containing 0.3 M NaCl, 10% glycerol, and 10 mM imidazole) and washed thoroughly with wash buffer (50 mM sodium phosphate buffer pH 6.0, containing 0.3 M NaCl, 10% glycerol, and 80 mM imidazole). RT was eluted with an imidazole gradient in wash buffer (0–0.5 M). Fractions were collected, protein purity was checked by SDS-PAGE and found to be higher than 90%. The 1:1 ration between the p66/p51 subunits was also verified. Enzyme-containing fractions were pooled and diluted 1:1 with 50 mM sodium phosphate buffer pH 7.0, containing 10% glycerol; and then loaded into a Hi-trap heparin HP GE (Healthcare Lifescience) pre-equilibrated with 10 column volumes of loading buffer (50 mM sodium phosphate buffer pH 7.0, containing 10% glycerol and 150 mM NaCl). The column was then washed with loading buffer and the RT was eluted with Elute Buffer 2 (50 mM sodium phosphate pH 7.0, 10% glycerol, 1 M NaCl). Fractions were collected, protein was dialysed and stored in buffer containing 50 mM Tris-HCl pH 7.0, 25 mM NaCl, 1 mM EDTA, and 50% glycerol. Catalytic activities and protein concentrations were determined. Enzyme-containing fractions were pooled and aliquots were stored at −80 °C.
(§2) HIV RT-associated RNase H activity was measured as described[36] using the RNase H inhibitor RDS1759[11] as a control. In 100 µL reaction volume containing 50 mM Tris-HCl buffer pH 7.8, 6 mM MgCl2, 1 mM dithiothreitol (DTT), 80 mM KCl, 0.25 µM hybrid RNA/DNA 5′-GAUCUGAGCCUGGGAGCU-Fluorescin-3′ (HPLC, dry, QC: Mass Check) (available from Metabion) 5′-Dabcyl-AGCTCCCAGGCTCAGATC-3′ (HPLC, dry, QC: Mass Check), increasing concentrations of inhibitor, whose dilution were made in water, and 20 ng of wt RT according to a linear range of dose-response curve. The reaction mixture was incubated for 1 h at 37 °C, stopped by addition of EDTA and products were measured with a multilabel counter plate reader Victor 3 (Perkin Elmer model 1420–051) equipped with filters for 490/528 nm (excitation/emission wavelength).

[2] = target: T2, HIV-1 RT V108F, RNase H function (Human immunodeficiency virus type 1 group M subtype B, UniProt P04585, V695F); assay: RNase H inhibition on mutated RT V108F; format: biochemical
T2 construct: introduce amino acid substitutions into the p66 HIV-1 RT subunit coded in a p6HRT- prot plasmid; His6; made in house; host or cells: E. coli strain M15
Method: as §2
(§3) The QuikChange mutagenesis kit (Agilent Technologies Inc., Santa Clara, CA) was used to introduce amino acid substitutions into the p66 HIV-1 RT subunit coded in a p6HRT- prot plasmid by following the manufacturer’s instructions.
(§4) In order to verify this hypothesis, it was chosen to perform site-directed mutagenesis, determining the independent impact of several amino acid substitutions on the potency of the compound to inhibit the RNase H function. All the selected aminoacids are localised in the RNase H domain and are potentially crucial for the binding of RNase H function inhibitors. […]

[3] = target: HIV-1 RT L503F, RNase H function (Human immunodeficiency virus 1, UniProt P04585, L1090F); assay: RNase H inhibition on mutated RT L503F; format: biochemical; conditions: row printed L503F
Method: as §2, §3, §4

[4] = target: T3, HIV-1 RT A508V, RNase H function (Human immunodeficiency virus type 1 group M subtype B, UniProt P04585, A1095V); assay: RNase H inhibition on mutated RT A508V; format: biochemical
T3 construct: introduce amino acid substitutions into the p66 HIV-1 RT subunit coded in a p6HRT- prot plasmid; His6; made in house; host or cells: E. coli strain M15
Method: as §2, §3, §4

[5] = tested on: HIV-1 RT R448A, RNase H function; assay: RNase H inhibition on mutated RT R448A; format: biochemical; conditions: RNase H IC50 ratio mutant/wt
Method: as §2, §3, §4

[6] = target: T4, HIV-1 RT R448A, RNase H function (Human immunodeficiency virus type 1 group M subtype B, UniProt P04585, R1035A); assay: RNase H inhibition on mutated RT R448A; format: biochemical
T4 construct: introduce amino acid substitutions into the p66 HIV-1 RT subunit coded in a p6HRT- prot plasmid; His6; made in house; host or cells: E. coli strain M15
Method: as §2, §3, §4

[7] = target: T5, HIV-1 RT-associated RDDP function (Human immunodeficiency virus type 1 group M subtype B, UniProt P04585); assay: HIV-1 RNA-dependent DNA polymerase (RDDP) activity determination; format: biochemical; conditions: for IC50: wt RT; for remaining activity at 100 µM: read-out: Percentage of residual enzyme activity (RDDP)
T5 construct: The 1:1 ration between the p66/p51 subunits was also verified; His6; made in house; host or cells: E. coli strain M15
Method: as §1
RNA-dependent DNA polymerase (RDDP) activity was measured as described[37] using the NNRTI Efavirenz as a control. In 25 µL volume containing 60 mM Tris-HCl buffer pH 8.1, 8 mM MgCl2, 60 mM KCl, 13 mM DTT, 2.5 µM poly (A)- oligo (dT), 100 µM dTTP, increasing concentrations of inhibitor, whose dilution were made in water, and 6 ng of wt RT according to a linear range of dose-response curve. After enzyme addition, the reaction mixture was incubated for 30 min at 37 °C and the stopped by addition of EDTA. Reaction products were detected by picogreen addition and measured with a multilabel counter plate reader Victor 3 (Perkin Elmer model 1420–051) equipped with filters for 502/523 nm (excitation/emission wavelength).

[8] = tested on: HIV-1 RT R557A, RNase H function; assay: RNase H inhibition on mutated RT R557A; format: biochemical; conditions: RNase H IC50 ratio mutant/wt
Method: as §2, §3, §4

[9] = target: T6, HIV-1 RT R557A, RNase H function (Human immunodeficiency virus type 1 group M subtype B, UniProt P04585, R1144A); assay: RNase H inhibition on mutated RT R557A; format: biochemical
T6 construct: introduce amino acid substitutions into the p66 HIV-1 RT subunit coded in a p6HRT- prot plasmid; His6; made in house; host or cells: E. coli strain M15
Method: as §2, §3, §4

[10] = tested on: HIV-1 RT A502F, RNase H function; assay: RNase H inhibition on mutated RT A502F; format: biochemical; conditions: RNase H IC50 ratio mutant/wt
Method: (§5) HIV RT-associated RNase H activity was measured as described[36] using the RNase H inhibitor RDS1759[11] as a control. In 100 µL reaction volume containing 50 mM Tris-HCl buffer pH 7.8, 6 mM MgCl2, 1 mM dithiothreitol (DTT), 80 mM KCl, 0.25 µM hybrid RNA/DNA 5′-[sequence]-Fluorescin-3′ (HPLC, dry, QC: Mass Check) (available from Metabion) 5′-Dabcyl-[sequence]-3′ (HPLC, dry, QC: Mass Check), increasing concentrations of inhibitor, whose dilution were made in water, and 20 ng of wt RT according to a linear range of dose-response curve. The reaction mixture was incubated for 1 h at 37 °C, stopped by addition of EDTA and products were measured with a multilabel counter plate reader Victor 3 (Perkin Elmer model 1420–051) equipped with filters for 490/528 nm (excitation/emission wavelength).
(§6) The next mutation involved the residue A502 located in the alpha helix, close to the second identified allosteric binding pocket. […] A502 residue was replaced by a phenylalanine with the aim to provoke a shift of alpha helix that might reduce the space between the two subunits p51 and p66 and therefore hinder the entrance of the compound in the pocket.

[11] = target: T7, HIV-1 RT A502F, RNase H function (Human immunodeficiency virus type 1 group M subtype B, UniProt P04585, A1089F); assay: RNase H inhibition on mutated RT A502F; format: biochemical
T7 construct: introduce amino acid substitutions into the p66 HIV-1 RT subunit coded in a p6HRT- prot plasmid; His6; made in house; host or cells: E. coli strain M15
Method: as §5, §6

[12] = in the presence of 100 µM of the compound

| Structure (SMILES) | IC50 ([1]; wt RT) | remaining activity at 100 µM [1] | IC50 [7] | remaining activity at 100 µM [7, 12] | folds less active on RNase H than flavuglaucin B (7) ([1]; wt RT) | other results |
| --- | --- | --- | --- | --- | --- | --- |
| COc1cc2oc(-c3ccc(O)c(O)c3)cc(=O)c2c(O)c1OC [Compound 3, cirsiliol] | 8.2 ± 0.6 µM |  |  |  |  | concentration inhibiting HIV-1 integrase (HIV-1 integrase): 12 µM |
| CC(=O)OCC1=C2C(COC3OC(CO)C(O)C(O)C3OC(C)=O)CC(C)C3(CC(c4ccoc4)OC3=O)C2CCC1 (stereo not shown) [Compound 5, teuflavoside] | > 100 µM | 74% |  |  |  |  |
| COc1cc2oc(-c3ccc(O)cc3)cc(=O)c2c(O)c1OC [Compound 2, cirsimaritin] | 89 ± 7 µM |  |  |  |  | decrease in RNase H inhibitory activity relative to cirsiliol (3) ([1]; wt RT): 10 folds |
| COc1ccc(-c2cc(=O)c3c(O)c(OC)c(OC)cc3o2)cc1 [Compound 1, salvigenin] | > 100 µM | 80% |  |  |  |  |
| CC1CC=C2C(CO)=CCCC2C12CC(c1ccoc1)OC2=O (stereo not shown) [Compound 7, Flavuglaucin B] | 9.1 ± 0.2 µM |  | > 100 µM |  |  | change of RNase H IC50 against V108F compared with the wild type enzyme [2]: slight increase in IC50; IC50 [3]: 27.3 µM; IC50 [4]: > 100 µM; loss in potency, R448A vs wild type [5]: 5.5 fold; IC50 [6]: 49.7 µM; Percentage of residual enzyme activity (RDDP) [7, 12]: 80%; loss in potency, R557A vs wild type [8]: 6.5 fold; IC50 [9]: 59.2 µM; loss in potency, A502F vs wild type [10]: 3.5 fold; IC50 [11]: 32.8 µM |
| CC(=O)OCC1=CCCC2C1=CCC(C)C21CC(c2ccoc2)OC1=O (stereo not shown) [Compound 6, Flavuglaucin A] | 20.2 ± 2 µM |  | > 100 µM | 80% | about two |  |
| CC(=O)OCC12C(O)CC(C)C3(CC(c4ccoc4)OC3=O)C1CCC(=O)C21CO1 (stereo not shown) [Compound 4, teuflavin] | > 100 µM | 80% |  |  |  |  |
| CC1CCC2=C(C=O)CCCC2C12CC(c1ccoc1)OC2=O (stereo not shown) [Compound 9] | 36.4 ± 0.4 µM |  | > 100 µM | 80% | four |  |
| CC1=C2CCC(C)C3(CC(c4ccoc4)OC3=O)C2CCC1=O (stereo not shown) [Compound 8, Flavuglaucin C] | 52.4 ± 0.4 µM |  | > 100 µM | 80% | about six |  |

From paper PMC7952052, “Flavonoids and Acid-Hydrolysis derivatives of Neo-Clerodane diterpenes from Teucrium flavum subsp. glaucum as inhibitors of the HIV-1 reverse transcriptase–associated RNase H function” (Journal of Enzyme Inhibition and Medicinal Chemistry, 2021)
